Experimental data reported in ChEMBL document CHEMBL1833962, “Benzotriazinone and benzopyrimidinone derivatives as potent positive allosteric AMPA receptor modulators” (2011).
Activity calls are given as the source filed them. The rule behind the calls is not given here.

Assays:
Rattus norvegicus [1] = assay: Positive allosteric modulation of AMPA receptor in anesthetized Long-Evans rat assessed as amplitude increase by measuring evoked hilar excitatory post-synaptic field potentials at 5 mg/kg, ip for every 20 secs up to 80 to 100 mins by electrophysiology assay; format: functional
Rattus norvegicus [2] = assay: Memory enhancing effect in Long-Evans rat assessed as increase in tetanic stimulation of hippocampal long term potentiation at 1 mg/kg, ip; format: functional, organism-based; design: dose 1 mg/kg; conditions: Hippocampus
Rattus norvegicus [3] = species on record: Rattus norvegicus; assay: Positive allosteric modulation of AMPA receptor in Sprague-Dawley rat hippocampal neuron assessed as glutamate-induced response pre-treated for 20 secs by patch-clamp electrophysiology; format: tissue-based; conditions: Hippocampus
Rattus norvegicus [4] = assay: Positive allosteric modulation of AMPA receptor in anesthetized Long-Evans rat assessed as amplitude increase by measuring evoked hilar excitatory post-synaptic field potentials at 2 mg/kg, ip for every 20 secs up to 80 to 100 mins; format: functional; conditions: route intraperitoneal
Rattus norvegicus [5] = assay: Positive allosteric modulation of AMPA receptor in anesthetized Long-Evans rat assessed as amplitude increase by measuring evoked hilar excitatory post-synaptic field potentials at 3 mg/kg, ip for every 20 secs up to 80 to 100 mins by electrophysiology assay; format: functional; conditions: route intraperitoneal
Rattus norvegicus [6] = assay: Positive allosteric modulation of AMPA receptor in anesthetized Long-Evans rat assessed as amplitude increase by measuring evoked hilar excitatory post-synaptic field potentials at 1 mg/kg, ip for every 20 secs up to 80 to 100 mins by electrophysiology assay; format: functional; conditions: route intraperitoneal
Rattus norvegicus [7] = assay: Positive allosteric modulation of AMPA receptor in anesthetized Long-Evans rat assessed as amplitude increase by measuring evoked hilar excitatory post-synaptic field potentials at 0.5 mg/kg, iv for every 20 secs up to 80 to 100 mins by electrophysiology assay; format: functional
Rattus norvegicus [8] = assay: Positive allosteric modulation of AMPA receptor in anesthetized Long-Evans rat assessed as amplitude increase by measuring evoked hilar excitatory post-synaptic field potentials at 1 mg/kg, iv for every 20 secs up to 80 to 100 mins by electrophysiology assay; format: functional
Rattus norvegicus [9] = assay: Positive allosteric modulation of AMPA receptor in anesthetized Long-Evans rat assessed as amplitude increase by measuring evoked hilar excitatory post-synaptic field potentials at 10 mg/kg, ip for every 20 secs up to 80 to 100 mins by electrophysiology assay; format: functional; conditions: route intraperitoneal

| CD (Rattus norvegicus [3]) | SMILES | Activity (Rattus norvegicus [1]; route intraperitoneal) [%] | other results |
| --- | --- | --- | --- |
| 0.006 µM | C#C[C@H](Cc1cccc(F)c1)n1cnc2cc3c(cc2c1=O)OC1CCCN1C3=O (stereo partly specified) |  | Activity (Rattus norvegicus [4]): 12% |
| 0.0029 µM | C#C[C@H](Cc1cc(F)cc(F)c1)n1nnc2cc3c(cc2c1=O)OC1CCCN1C3=O (stereo partly specified) | 34 |  |
| 0.2 µM | C#C[C@H](Cc1cccc(F)c1)n1nnc2cc3c(cc2c1=O)OCN(C1CC1)C3=O | 10 |  |
| 0.002 µM | C#C[C@H](Cc1cc(F)cc(F)c1)n1cnc2cc3c(cc2c1=O)OC1CCCN1C3=O (stereo partly specified) |  | Activity (Rattus norvegicus [6]): 30% |
| 0.13 µM | C#CCn1cnc2cc3c(cc2c1=O)OC1CCCN1C3=O (stereo unspecified) |  | Activity (Rattus norvegicus [1]): inactive |
| 0.0037 µM | O=C1c2cc3ncn(CCc4cccc(F)c4)c(=O)c3cc2OC2CCCN12 (stereo unspecified) |  | Activity (Rattus norvegicus [7]): 21%; Activity (Rattus norvegicus [5]): 27% |
| 0.004 µM | C#C[C@H](Cc1cccc(F)c1)N1COc2cc3c(cc2C1=O)OC1CCCN1C3=O (stereo partly specified) |  |  |
| 0.14 µM | C#CCn1nnc2cc3c(cc2c1=O)OC1CCCN1C3=O (stereo unspecified) |  | Activity (Rattus norvegicus [1]): inactive |
| 0.021 µM | CC[C@H](Cc1cccc(F)c1)n1nnc2cc3c(cc2c1=O)OC1CCCN1C3=O (stereo partly specified) | 2 |  |
| 0.68 µM | Cn1nnc2cc3c(cc2c1=O)OC1CCCN1C3=O (stereo unspecified) |  | Activity (Rattus norvegicus [1]): inactive |
| 0.0031 µM | O=C1c2cc3nnn(CCc4cccc(F)c4)c(=O)c3cc2OC2CCCN12 (stereo unspecified) | 24 | Activity (Rattus norvegicus [8]): 24% |
| 0.4 µM | O=C1c2cc3nnn(C4CC4)c(=O)c3cc2OC2CCCN12 (stereo unspecified) |  | Activity (Rattus norvegicus [9]): 3% |
| 0.004 µM | C#C[C@H](Cc1cccc(F)c1)n1nnc2cc3c(cc2c1=O)OC1CCCN1C3=O (stereo partly specified) |  | Activity (Rattus norvegicus [4]): 5% |

More lines, now with the values behind:

| SMILES | CD (Rattus norvegicus [3]) | Activity (Rattus norvegicus [1]; route intraperitoneal) [%] | other results |
| --- | --- | --- | --- |
| C[C@H](Cn1ncnn1)n1nnc2cc3c(cc2c1=O)OCN(C1CC1)C3=O | 0.46 µM | 33 | Activity (Rattus norvegicus [2]): Active |
| O=C(CN1COc2cc3c(cc2C1=O)OC1CCCN1C3=O)c1ccccc1 (stereo unspecified) | 100 µM |  |  |
| O=C1c2cc3ncn(CCn4cccn4)c(=O)c3cc2OC2CCCN12 (stereo unspecified) | 0.17 µM |  | Activity (Rattus norvegicus [1]): inactive |
| O=C1c2cc3c(cc2OCN1CC(O)c1ccccc1)C(=O)N1CCCC1O3 (racemic) | 1 µM |  |  |
| COC(=O)[C@@H](Cc1ccccc1)N1COc2cc3c(cc2C1=O)OC1CCCN1C3=O (stereo partly specified) | 48 µM |  |  |
| O=C1c2cc3ncn(CCc4ccccc4)c(=O)c3cc2OC2CCCN12 (stereo unspecified) | 0.13 µM | 2 |  |
| COC(=O)[C@H](Cc1ccccc1)N1COc2cc3c(cc2C1=O)OC1CCCN1C3=O (stereo partly specified) | 0.28 µM |  |  |
| C[C@H](Cn1cnnn1)n1nnc2cc3c(cc2c1=O)OCN(C1CC1)C3=O | 0.19 µM | 7 |  |
| CC[C@H](Cn1cc(Cl)cn1)n1cnc2cc3c(cc2c1=O)OC1CCCN1C3=O (stereo partly specified) | 0.0084 µM |  | Activity (Rattus norvegicus [5]): 4% |
| C[C@H](Cn1nccn1)n1cnc2cc3c(cc2c1=O)OC1CCCN1C3=O (stereo partly specified) | 0.45 µM | 7 |  |
| C[C@H](Cn1ncnn1)n1nnc2cc3c(cc2c1=O)OC1CCCN1C3=O (stereo partly specified) | 0.042 µM | 39 |  |
| C[C@H](Cn1ncnn1)n1cnc2cc3c(cc2c1=O)OC1CCCN1C3=O (stereo partly specified) | 0.03 µM | 22 |  |
| CC(C)(CN1COc2cc3c(cc2C1=O)OC1CCCN1C3=O)c1cccc(F)c1 (stereo unspecified) | 17 µM |  |  |
| O=C1c2cc3ncn(CCn4cc(Cl)cn4)c(=O)c3cc2OC2CCCN12 (stereo unspecified) | 0.019 µM |  | Activity (Rattus norvegicus [5]): 3% |
| O=C1c2cc3ncn(C4CC4)c(=O)c3cc2OC2CCCN12 (stereo unspecified) | 6.7 µM |  |  |
| O=C1c2cc3c(cc2OCN1CCc1ccccc1)C(=O)N1CCCC1O3 (stereo unspecified) | 0.25 µM |  |  |
| O=C1c2cc3c(cc2OCN1CCc1cccc(F)c1)C(=O)N1CCCC1O3 (stereo unspecified) | 0.011 µM | 2 | Activity (Rattus norvegicus [8]): 28% |
| C[C@@H](Cn1cc(Cl)cn1)n1cnc2cc3c(cc2c1=O)OC1CCCN1C3=O (stereo partly specified) | inactive |  |  |
| C[C@H](Cn1cnnn1)n1nnc2cc3c(cc2c1=O)OC1CCCN1C3=O (stereo partly specified) | 0.015 µM | 10 |  |
| COC(CN1COc2cc3c(cc2C1=O)OC1CCCN1C3=O)c1ccccc1 (racemic) | 7.4 µM |  |  |
| C[C@H](Cn1cc(Cl)cn1)n1cnc2cc3c(cc2c1=O)OC1CCCN1C3=O (stereo partly specified) | 0.0069 µM |  | Activity (Rattus norvegicus [6]): 2% |
| O=C1c2cc3c(cc2OCN1CC(F)(F)c1cccc(F)c1)C(=O)N1CCCC1O3 (stereo unspecified) | 1.5 µM |  |  |
| C#C[C@H](Cc1ccccc1)N1COc2cc3c(cc2C1=O)OC1CCCN1C3=O (stereo partly specified) | 0.32 µM |  |  |
| O=C1c2cc3nnn(CCn4cccn4)c(=O)c3cc2OC2CCCN12 (stereo unspecified) | 0.1 µM |  | Activity (Rattus norvegicus [1]): inactive |
